IC50 data for 18 compounds are collected here from patent US20260265262A1, “CDK2 INHIBITORS AND METHODS OF USING THE SAME” (Cedilla Therapeutics, Inc., priority 2022, published 2026).

Assay [1] concerns the target CDK2/Cyclin E1 (Homo sapiens, UniProt P24941). As to the kind of experiment: ADP-Glo Luminescent Kinase Assay (CDK2/E1-37C). The assay is classed as biochemical. Conditions: 0.18 nM CDK2/Cyclin E1, 100 μM ATP, 1.5 μM Histone H1, 37° C., 60 min pre-incubation. The method, then:
Inhibition of CDK2/Cyclin E1 activity by the presence of small molecules was evaluated using ADP-Glo Luminescent Kinase Assay (Promega). Activated CDK2/Cyclin E1 was incubated with its substrate Histone H1 (SignalChem H10-54N) in the kinase reaction buffer (100 μM ATP, 50 mM HEPES pH 7.5, 10 mM MgCl2, 1 mM EDTA, 2 mM DTT, 0.01% Brij35, 0.5 mg/mL BSA). Luminescence was recorded with an Envision plate reader (PerkinElmer).
Dose titrations of inhibitors in 100% DMSO were combined with 0.36 nM CDK2/Cyclin E1 in reaction buffer. The mixtures were incubated for 60 minutes at 37° C. before the addition of ATP and Histone H1 substrate to initiate the kinase reaction. The final conditions were 0.18 nM CDK2/Cyclin E1, 100 μM ATP, and 1.5 μM Histone H1. The reactions were incubated at 37° C. for 90 minutes before being stopped with the addition of ADP-Glo reagent. This mixture was incubated at room temperature for 60 minutes before Kinase Detection Solution is added to generate luminescence. The stopped reactions were analyzed on an Envision plate reader. The conversion ratios were normalized to yield % activity, plotted against compound concentration, and fit to a four-parameter equation to determine the IC50 for each compound.
(In ADP-Glo the light output rises with the ADP produced.)

Assay [2] has as its system Kuramochi cells. The assay can be described thus: IncuCyte cell proliferation assay. Format: cell-based. The method, then: IncuCyte® assay was used to measure the effect of disclosed compounds on cell proliferation. Fluorescent microscopy images of cells were taken immediately after compound treatment and 72 hours later. Image analysis software was used to obtain cell counts as a function of compound concentration. Kuramochi cells labeled with mApple-H2B were seeded on 384-well assay-ready plates. Plates were placed in an IncuCyte® (Sartorius) and scanned at 0 and 72 hours. IncuCyte® software was used to count the number of fluorescent nuclei in each well. The fold change in cell count from 0 to 72 hours in wells treated with increasing compounds concentrations (10 pts, 1/2 log dilution, 20 μM top concentration) was normalized to DMSO control wells. The normalized cell counts were fit with dose response curves and a […] was calculated.

Where [3] appears, read: read-out: ADPGLO (CDK2/E1-37C): IC50.
[4] abbreviates: Kuramochi cells labeled with mApple-H2B, cell count 0 to 72 hours, 20 μM top concentration, read-out: IncuCyte Kuramochi RB-WT: IC50.

Each structure is given as a SMILES string. Read-outs that look alike come from different tables or passages of the source. Bounds are passed on as bounds.

As to `C[C@@H](OCC12CCC(CC1)OC2)[C@H](NC(=O)[C@@H]1CN(C(=O)c2cnn(Cc3ccccc3)c2)CC12CN(C(=O)C1(C(F)(F)F)CC1)C2)C(=O)N1CCN(c2ccc(C(=O)O)cc2)CC1` [Example I-87, 4-(4-(O-((2-oxabicyclo[2.2.2]octan-4-yl)methyl)-N—((S)-6-(1-benzyl-1H-pyrazole-4-carbonyl)-2-(1-(trifluoromethyl)cyclopropane-1-carbonyl)-2,6-diazaspiro[3.4]octane-8-carbonyl)-L-threonyl)piperazin-1-yl)benzoic acid], the results for the IC50 in assay [1] (setting [3]) and in assay [2] (setting [4]) were less than 0.5 µM and 5 to 20 µM, respectively.

Regarding `Cc1cc(C2CCN(C(=O)[C@@H](NC(=O)[C@@H]3CN(C(=O)c4cnn(Cc5ccc(C(F)(F)F)cc5)c4)CC34CN(C(=O)C3(C(F)(F)F)CC3)C4)[C@@H](C)OCC34CCC(CC3)OC4)CC2)cc(C(F)(F)F)c1OCC(=O)O` [Example I-104], the IC50 in assay [1] (setting [3]) is less than 0.5 µM; in assay [2] (setting [4]), greater than 20 µM.

`C[C@@H](OCC12CCC(CC1)OC2)[C@H](NC(=O)[C@@H]1CN(C(=O)c2cnc(O)cn2)CC12CN(C(=O)C1(C(F)(F)F)CC1)C2)C(=O)N1CCC(c2ccc(C(=O)O)c(C(F)(F)F)c2)CC1` [I-89 1st, 4-(1-(O-((2-oxabicyclo[2.2.2]octan-4-yl)methyl)-N—((S)-6-(5-hydroxypyrazine-2-carbonyl)-2-(1-(trifluoromethyl)cyclopropane-1-carbonyl)-2,6-diazaspiro[3.4]octane-8-carbonyl)-L-threonyl)piperidin-4-yl)-2-(trifluoromethyl)benzoic acid]: the IC50 was greater than 10 µM in assay [1] (setting [3]) and greater than 20 µM in assay [2] (setting [4]).

For the compound `C[C@@H](OCC12CCC(CC1)OC2)[C@H](NC(=O)[C@@H]1CN(C(=O)c2cnc(O)cn2)CC12CN(C(=O)C1(C(F)(F)F)CC1)C2)C(=O)N1CCC(c2ccc(C(=O)O)c(C(F)(F)F)c2)CC1` [I-89 3rd, 4-(1-(O-((2-oxabicyclo[2.2.2]octan-4-yl)methyl)-N-(6-(5-hydroxypyrazine-2-carbonyl)-2-(1-(trifluoromethyl)cyclopropane-1-carbonyl)-2,6-diazaspiro[3.4]octane-8-carbonyl)-L-threonyl)piperidin-4-yl)-2-(trifluoromethyl)benzoic acid], the IC50 was less than 0.5 µM in assay [1] (setting [3]) and greater than 20 µM in assay [2] (setting [4]).

For `C[C@@H](OCC12CCC(CC1)OC2)[C@H](NC(=O)[C@@H]1CN(C(=O)c2cnn(Cc3ccccc3C(=O)O)c2)CC12CN(C(=O)C1(C(F)(F)F)CC1)C2)C(=O)N1CCN(Cc2ccc(C(F)(F)F)cc2)CC1` [Example I-14, 2-((4-((S)-8-(((2S,3R)-3-((2-oxabicyclo[2.2.2]octan-4-yl)methoxy)-1-oxo-1-(4-(4-(trifluoromethyl)benzyl)piperazin-1-yl)butan-2-yl)carbamoyl)-2-(1-(trifluoromethyl)cyclopropane-1-carbonyl)-2,6-diazaspiro[3.4]octane-6-carbonyl)-1H-pyrazol-1-yl)methyl)benzoic acid], the IC50 in assay [1] (setting [3]) was less than 0.5 µM; in assay [2] (setting [4]), greater than 20 µM.

Take `C[C@@H](OCC12CCC(CC1)OC2)[C@H](NC(=O)[C@@H]1CN(C(=O)c2cnc(O)cn2)CC12CN(C(=O)[C@H]1CC1(C)C)C2)C(=O)N1CCC(c2ccc(C(F)(F)F)cc2C(=O)O)CC1` [Example I-10]: the IC50 in assay [1] (setting [3]) was less than 0.5 µM; in assay [2] (setting [4]), greater than 20 µM.

As for `C[C@@H](OCC12CCC(CC1)OC2)[C@H](NC(=O)[C@@H]1CN(C(=O)c2cnn(Cc3ccc(C(F)(F)F)cc3)c2)CC12CN(C(=O)C1(C(F)(F)F)CC1)C2)C(=O)N1CCC(c2ccc(C(=O)O)cc2)CC1` [Example I-99], the IC50 in assay [1] (setting [3]) was less than 0.5 µM; in assay [2] (setting [4]) it was greater than 20 µM.

`C[C@@H](OCC12CCC(CC1)OC2)[C@H](NC(=O)[C@@H]1CN(C(=O)c2cnn(Cc3ccc(C(F)(F)F)cc3)c2)CC12CN(C(=O)C1(C(F)(F)F)CC1)C2)C(=O)N1CCC(c2ccc(OC(C)(C)C(=O)O)c(C(F)(F)F)c2)CC1` [Example I-4]: the IC50 is less than 0.5 µM in assay [1] (setting [3]) and greater than 20 µM in assay [2] (setting [4]).

With `C[C@@H](OCC12CCC(CC1)OC2)[C@H](NC(=O)[C@@H]1CN(C(=O)c2cnn(Cc3ccccc3C(=O)O)c2)CC12CN(C(=O)C1(C(F)(F)F)CC1)C2)C(=O)NCCC1CCNCC1` (stereo in doubt) [Example I-102], the figures for the IC50 in assay [1] (setting [3]) and in assay [2] (setting [4]) were 0.5 to 5 µM and greater than 20 µM, respectively.

Turning to `COC(=O)C1CCN(C(=O)[C@@H](NC(=O)[C@@H]2CN(C(=O)c3cnn(Cc4ccccc4)c3)CC23CN(C(=O)[C@H]2CC2(C)C)C3)[C@@H](C)OCC2CCCCC2)CC1` [Example I-17], the IC50 in assay [1] (setting [3]) and in assay [2] (setting [4]) was less than 0.5 µM throughout.

Turning to `C[C@@H](OCC12CCC(CC1)OC2)[C@H](NC(=O)[C@@H]1CN(C(=O)c2cnn(Cc3ccc(C(F)(F)F)cc3)c2)CC12CN(C(=O)C1(C(F)(F)F)CC1)C2)C(=O)N1CCC(c2ccccc2C(=O)O)CC1` [Example I-3, 2-(1-(O-((2-oxabicyclo[2.2.2]octan-4-yl)methyl)-N—((S)-6-(1-(4-(trifluoromethyl)benzyl)-1H-pyrazole-4-carbonyl)-2-(1-(trifluoromethyl)cyclopropane-1-carbonyl)-2,6-diazaspiro[3.4]octane-8-carbonyl)-L-threonyl)piperidin-4-yl)benzoic acid], the IC50 in assay [1] (setting [3]) is less than 0.5 µM; in assay [2] (setting [4]) it was 0.5 to 5 µM.

In the case of `C[C@@H](OCC1CCCCC1)[C@H](NC(=O)[C@@H]1CN(C(=O)c2cnn(Cc3ccccc3)c2)CC12CN(C(=O)[C@H]1CC1(C)C)C2)C(=O)N1CCCC[C@@H]1C(=O)O` [Example I-35], the IC50 is less than 0.5 µM in assay [1] (setting [3]) and greater than 20 µM in assay [2] (setting [4]).

Regarding `C[C@@H](OCC1CCOCC1)[C@H](NC(=O)[C@@H]1CN(C(=O)c2cnc(O)cn2)CC12CN(C(=O)C1(C(F)(F)F)CC1)C2)C(=O)N1CCC(C(F)(F)F)CC1` [Example I-78, (S)-6-(5-hydroxypyrazine-2-carbonyl)-N-((2S,3R)-1-oxo-3-((tetrahydro-2H-pyran-4-yl)methoxy)-1-(4-(trifluoromethyl)piperidin-1-yl)butan-2-yl)-2-(1-(trifluoromethyl)cyclopropane-1-carbonyl)-2,6-diazaspiro[3.4]octane-8-carboxamide], the IC50 in assay [1] (setting [3]) is less than 0.5 µM; in assay [2] (setting [4]) it was greater than 20 µM.

On to `C[C@@H](OCC12CCC(CC1)OC2)[C@H](NC(=O)[C@@H]1CN(C(=O)c2cnn(Cc3ccc(C(F)(F)F)cc3)c2)CC12CN(C(=O)C1(C(F)(F)F)CC1)C2)C(=O)N1CCC(C#N)CC1` [Example I-25, (S)—N-((2S,3R)-3-((2-oxabicyclo[2.2.2]octan-4-yl)methoxy)-1-(4-cyanopiperidin-1-yl)-1-oxobutan-2-yl)-6-(1-(4-(trifluoromethyl)benzyl)-1H-pyrazole-4-carbonyl)-2-(1-(trifluoromethyl)cyclopropane-1-carbonyl)-2,6-diazaspiro[3.4]octane-8-carboxamide], for which the IC50 in assay [1] (setting [3]) was less than 0.5 µM; in assay [2] (setting [4]), greater than 20 µM.

Take `COP(=O)(CCNC(=O)[C@@H](NC(=O)[C@@H]1CN(C(=O)c2cnn(Cc3ccccc3)c2)CC12CN(C(=O)[C@H]1CC1(C)C)C2)[C@@H](C)OCC1CCCCC1)OC` [Example I-27]: the IC50 in assay [1] (ADPGLO (CDK2/E1-37C): IC50 (μM)) was less than 0.5 µM; in assay [2] (read-out: IncuCyte Kuramochi RB-WT: IC50 (μM)) it was 0.5 to 5 µM.

In the case of `CCCN1CCC2(CC1)CCN(C(=O)C(NC(=O)C1CN(C(=O)c3cnn(Cc4ccccc4C(=O)O)c3)CC13CN(C(=O)C1(C(F)(F)F)CC1)C3)C(C)OCC13CCC(CC1)OC3)CC2` (stereo not drawn) [Example I-115], the values for the IC50 in assay [1] (setting [3]) and in assay [2] (setting [4]) were less than 0.5 µM and greater than 20 µM, respectively.

Take `Cc1oc(=O)oc1COC(=O)C(C)(C)CNC(=O)[C@@H](NC(=O)[C@@H]1CN(C(=O)c2cnn(Cc3ccccc3)c2)CC12CN(C(=O)[C@H]1CC1(C)C)C2)[C@@H](C)OCC1CCCCC1` [Example I-32, (5-methyl-2-oxo-1,3-dioxol-4-yl)methyl 3-((2S,3R)-2-((S)-6-(1-benzyl-1H-pyrazole-4-carbonyl)-2-((S)-2,2-dimethylcyclopropane-1-carbonyl)-2,6-diazaspiro[3.4]octane-8-carboxamido)-3-(cyclohexylmethoxy)butanamido)-2,2-dimethylpropanoate]: the IC50 in assay [1] (setting [3]) is less than 0.5 µM; in assay [2] (setting [4]), 5 to 20 µM.

On to `COC(=O)C(C)(C)Oc1ccc(C2CCN(C(=O)[C@@H](NC(=O)[C@@H]3CN(C(=O)c4cnn(Cc5ccc(C(F)(F)F)cc5)c4)CC34CN(C(=O)C3(C(F)(F)F)CC3)C4)[C@@H](C)OCC34CCC(CC3)OC4)CC2)cc1C(F)(F)F` (stereo in doubt) [Example I-5], for which the IC50 in assay [1] (setting [3]) is greater than 10 µM; in assay [2] (setting [4]), greater than 20 µM.
